Key:
[1] = test system: AR-responsive transcript FKBP5; assay: AR functional RT-qPCR assay (FKBP5 transcript) in CWR22Pc-R1-AD1 cells; type: cell-based, human; details: 48 h, 1 nM DHT
Excerpt: oxygen from the donor to the acceptor, exciting a fluorophore to emit light at 520-620 nm5.
Two primary anti-AR antibodies derived from mouse and rabbit were applied to bind AR simultaneously at separate epitopes. Secondary AlphaScreen® antibodies were combined with the primary antibodies in the form of AlphaScreen® donor beads functionalised with antibodies recognising mouse antibody IgG (PerkinElmer AS104D), and AlphaScreen® acceptor beads functionalised with antibodies recognising rabbit antibody IgG (PerkinElmer AL104C). […]
red free RPMI1640 media supplemented with 10% charcoal-stripped serum was used throughout. […] Media was removed using an ELX405 CW washer (BioTek) and 12 µL RealTime ready Cell Lysis Kit supplemented with RNAse inhibitor (Roche) was added per well. […] RealTime ready RNA Virus Master Mix (Roche) was prepared following manufacturer’s instructions, supplemented with primers and probes for FKBP5 (FAM, IDT Ref Seq # NM_001145776(3)) and β-Actin (VIC, IDT Ref Seq # NM_001101(1)). […] PCR plates were sealed and analysed using a LightCycer®II 480 (Roche). […] 40 PCR cycles were performed consisting of 30 sec at 95 °C, 20 sec at 60 °C, fluorescence acquisition, and 1 sec at 72 °C. Calculated Cq values were exported for analysis. […]

[2] = test system: AR-driven transcription (ARE-Luciferase); assay: AR-driven transcription ARE Luciferase reporter assay in CWR22Pc-R1-AD1 cells; type: cell-based, human; details: 1 nM DHT, 24 h; for IC50: CWR22Pc-R1-AD1 cells, read-out: AR-driven transcription (ARE-Luciferase), 24 h, IC50; for Conclusion: activity in ARE-Luciferase assay: Supplementary Table S1;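 for all read-outs here: cells stably carrying an ARE-driven firefly luciferase reporter, with luminescence as read-out, tested in phenol red free RPMI containing 10% charcoal stripped FBS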
Protocol: 15 µL 2x Steady-Glo® reagent (Promega) was added per well and incubated 15 min in the dark before reading luminescence using an EnVision platereader. Experiments were performed in phenol red free RPMI media supplemented with 10% charcoal stripped FBS.

N#Cc1cc2cc(CN3CCC(Nc4ncnc5sc(CC(F)(F)F)cc45)CC3)ccc2[nH]1 [MI-136]
reduction of AR-responsive transcript FKBP5 (RT-qPCR) [1]: confirmed | IC50 [2]: 7.4 µM | Conclusion: activity in ARE-Luciferase assay [2]: Active

Cc1c(CN2CCC(Nc3ncnc4sc(CC(F)(F)F)cc34)CC2)ccc2c1cc(C#N)n2Cc1cn[nH]c1 [MI-503]
reduction of AR-responsive transcript FKBP5 (RT-qPCR) [1]: confirmed | IC50 [2]: 11 µM | Conclusion: activity in ARE-Luciferase assay [2]: Active

— article PMC5760633, “Determining direct binders of the Androgen Receptor using a high-throughput Cellular Thermal Shift Assay” (Scientific Reports, 2018)
